Results taken from ChEMBL document CHEMBL3632603, “Synthesis of biscoumarin and dihydropyran derivatives with promising antitumor and antibacterial activities” (Bioorg Med Chem Lett, 2015).
In brackets after ≈: the same amount, converted by molar mass.

Key:
Staphylococcus aureus [1] = experiment: Antibacterial activity against Staphylococcus aureus ATCC 29213 after 20 hrs by CLSI broth microdilution method; assay type: functional
Staphylococcus aureus [2] = experiment: Antibacterial activity against methicillin-resistant Staphylococcus aureus USA 300 LAC after 20 hrs by CLSI broth microdilution method; assay type: functional
Staphylococcus aureus [3] = experiment: Antibacterial activity against methicillin-resistant Staphylococcus aureus XJ 75302 after 20 hrs by CLSI broth microdilution method; assay type: functional
4T1 [4] = experiment: Cytotoxicity against mouse 4T1 cells after 48 hrs by MTT assay; assay type: functional, cell-based; conditions: 4T1, 48 h
[5] = Cytotoxicity against human PANC1 cells after 48 hrs by MTT assay; assay type: functional, cell-based; conditions: PANC-1, 48 h
Staphylococcus aureus [6] = experiment: Antibacterial activity against methicillin-resistant Staphylococcus aureus Mu50 ATCC 700699 after 20 hrs by CLSI broth microdilution method; assay type: functional
[7] = Cytotoxicity against human HuTu 80 cells after 48 hrs by MTT assay; assay type: functional, cell-based; conditions: HuTu80, 48 h
4T1 [8] = experiment: Induction of apoptosis in mouse 4T1 cells assessed as early apoptotic cells at 5 ug/ml after 48 hrs by Annexin V/Alexa Fuor 488/PI-staining based flow cytometric analysis (Rvb=4.4%); assay type: functional
4T1 [9] = experiment: Induction of apoptosis in mouse 4T1 cells assessed as late apoptotic cells at 5 ug/ml after 48 hrs by Annexin V/Alexa Fuor 488/PI-staining based flow cytometric analysis (Rvb=3.5%); assay type: functional
4T1 [10] = experiment: Induction of apoptosis in mouse 4T1 cells assessed as necrotic cells at 5 ug/ml after 48 hrs by Annexin V/Alexa Fuor 488/PI-staining based flow cytometric analysis (Rvb=0.5%); assay type: functional
4T1 [11] = experiment: Induction of apoptosis in mouse 4T1 cells assessed as viable cells at 5 ug/ml after 48 hrs by Annexin V/Alexa Fuor 488/PI-staining based flow cytometric analysis (Rvb= 91.7%); assay type: functional; conditions: 4T1, 48 h, read-out: Activity
4T1 [12] = experiment: Induction of apoptosis in mouse 4T1 cells assessed as increase in early and late apoptotic cells at 5 ug/ml after 48 hrs by Annexin V/Alexa Fuor 488/PI-staining based flow cytometric analysis relative to vehicle control; assay type: functional

Compound	MIC (Staphylococcus aureus [1]; ATCC 29213, 20 h) [µg/mL]	MIC (Staphylococcus aureus [2]) [µg/mL]	MIC (Staphylococcus aureus [3]; XJ 75302, 20 h) [µg/mL]	IC50 (4T1 [4]) [µg/mL]	IC90 (4T1 [4]) [µg/mL]	IC50 [5] [µg/mL]	IC90 [5] [µg/mL]	MIC (Staphylococcus aureus [6]; Mu50 ATCC 700699, 20 h) [µg/mL]	IC50 [7] [µg/mL]	IC90 [7] [µg/mL]	Activity (4T1 [8]) [%]	Activity (4T1 [9]) [%]	Activity (4T1 [10]) [%]	viability at 5 µg/mL (4T1 [11]) [%]	fold change (FC) (4T1 [12])	MIC (Staphylococcus aureus [1]) [µg/mL]	MIC (Staphylococcus aureus [3]) [µg/mL]	MIC (Staphylococcus aureus [6]) [µg/mL]
O=c1oc2ccccc2c(O)c1C(c1ccc(F)c(Cl)c1)c1c(O)c2ccccc2oc1=O	16 (≈ 34.4 µM)	8 (≈ 17.2 µM)	16 (≈ 34.4 µM)	22.9 (≈ 49.3 µM)	43.2 (≈ 92.9 µM)	30.8 (≈ 66.2 µM)	55.8 (≈ 120 µM)	8 (≈ 17.2 µM)	32.6 (≈ 70.1 µM)	64.5 (≈ 139 µM)								
CC(C)(O/N=C(\C(=O)N[C@@H]1C(=O)N2C(C(=O)[O-])=C(C[n+]3ccccc3)CS[C@H]12)c1csc(N)n1)C(=O)O [CEFTAZIDIME]	> 8	64 (≈ 117 µM)	> 256					256 (≈ 468 µM)										
N#CC1=C(N)OC2=C(C(=O)CCC2)C1c1cc(F)cc(F)c1 (stereo not given)	> 256	> 256	> 256	164 (≈ 543 µM)	308 (≈ 1020 µM)	319 (≈ 1060 µM)	624 (≈ 2060 µM)	> 256	446 (≈ 1480 µM)	824 (≈ 2730 µM)								
C[C@H]1COc2c(N3CCN(C)CC3)c(F)cc3c(=O)c(C(=O)O)cn1c23.C[C@H]1COc2c(N3CCN(C)CC3)c(F)cc3c(=O)c(C(=O)O)cn1c23.O [LEVOFLOXACIN]	< 0.125	8	4					4										
O=c1oc2ccccc2c(O)c1C(c1ccc(Br)cc1)c1c(O)c2ccccc2oc1=O	16 (≈ 32.6 µM)	8 (≈ 16.3 µM)	16 (≈ 32.6 µM)	19.3 (≈ 39.2 µM)	36.7 (≈ 74.7 µM)	31.8 (≈ 64.7 µM)	61.4 (≈ 125 µM)	8 (≈ 16.3 µM)	29.7 (≈ 60.5 µM)	52.6 (≈ 107 µM)	44	25.5	0.3	30.2	>8			
N#CC1=C(N)OC2=C(C(=O)CCC2)C1c1cccc(Br)c1 (stereo not given)	> 256	> 256	> 256	157 (≈ 455 µM)	287 (≈ 830 µM)	368 (≈ 1070 µM)	704 (≈ 2040 µM)	> 256	281 (≈ 814 µM)	543 (≈ 1570 µM)								
CC1(C)CC(=O)C2=C(C1)OC(N)=C(C#N)C2c1cccc(Oc2ccccc2)c1 (stereo not given)	> 256	> 256	> 256	481 (≈ 1240 µM)	927 (≈ 2400 µM)	383 (≈ 991 µM)	759 (≈ 1960 µM)	> 256	900 (≈ 2330 µM)	1700 (≈ 4400 µM)								
CC(C)(C)c1ccc(C(c2c(O)c3ccccc3oc2=O)c2c(O)c3ccccc3oc2=O)cc1	16 (≈ 34.2 µM)	32 (≈ 68.3 µM)	16 (≈ 34.2 µM)	24.6 (≈ 52.4 µM)	47.1 (≈ 101 µM)	28 (≈ 59.7 µM)	53.2 (≈ 113 µM)	16 (≈ 34.2 µM)	31.1 (≈ 66.5 µM)	55.5 (≈ 119 µM)								
COc1ccc(C2C(C#N)=C(N)Oc3c2c(=O)oc2ccccc32)cc1OC (stereo not given)	> 256	> 256	> 256	107 (≈ 283 µM)	194 (≈ 516 µM)	168 (≈ 448 µM)	310 (≈ 825 µM)	> 256	132 (≈ 352 µM)	232 (≈ 618 µM)								
N#CC1=C(N)Oc2c(c(=O)oc3ccccc23)C1c1ccc(C#N)cc1 (stereo not given)	> 256	> 256	> 256	115 (≈ 336 µM)	208 (≈ 609 µM)	150 (≈ 439 µM)	286 (≈ 838 µM)	> 256	121 (≈ 355 µM)	221 (≈ 648 µM)								
N#CC1=C(N)Oc2c(c(=O)oc3ccccc23)C1c1ccc(Br)cc1 (stereo not given)	> 256	> 256	> 256	96.2 (≈ 243 µM)	172 (≈ 435 µM)	176 (≈ 446 µM)	328 (≈ 829 µM)	> 256	140 (≈ 355 µM)	274 (≈ 692 µM)								
COc1cc(C2C(C#N)=C(N)OC3=C2C(=O)CCC3)ccc1O (stereo not given)	> 256	> 256	> 256	114 (≈ 364 µM)	219 (≈ 700 µM)	232 (≈ 744 µM)	462 (≈ 1480 µM)	> 256	208 (≈ 666 µM)	399 (≈ 1280 µM)								
CC1(C)CC(=O)C2=C(C1)OC(N)=C(C#N)C2c1ccccc1C#N (stereo not given)	> 256	> 256	> 256	249 (≈ 778 µM)	503 (≈ 1580 µM)	242 (≈ 757 µM)	512 (≈ 1600 µM)	> 256	414 (≈ 1300 µM)	814 (≈ 2550 µM)								
GENTAMICIN		0.25														0.12	64	32
CCN1CCN(C(=O)N[C@@H](C(=O)N[C@@H]2C(=O)N3[C@@H]2SC(C)(C)[C@@H]3C(=O)O)c2ccccc2)C(=O)C1=O [PIPERACILLIN]	2 (≈ 3.86 µM)	8 (≈ 15.5 µM)	> 128					> 128										
CO/N=C(\C(=O)N[C@@H]1C(=O)N2C(C(=O)O)=C(CSc3nc(=O)c(O)nn3C)CS[C@H]12)c1csc(N)n1 [CEFTRIAXONE]	2 (≈ 3.61 µM)	32 (≈ 57.7 µM)	> 256					256 (≈ 462 µM)										
CC1(C)CC(=O)C2=C(C1)OC(N)=C(C#N)C2c1cccc(C(F)(F)F)c1 (stereo not given)	> 256	> 256	> 256	287 (≈ 791 µM)	575 (≈ 1590 µM)	248 (≈ 685 µM)	503 (≈ 1390 µM)	> 256	388 (≈ 1070 µM)	788 (≈ 2170 µM)								
